# Laboratory results from the supplement of paper PMC10307832.
# Assays:
# Assay in all cases: relative viability (nuclei count vs DMSO), 5 days (fraction); higher = more cells survive
# NCI-H2347 = system: NCI-H2347
# Outline: (§1)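 Lung cancer cell lines in 1536-well plates got either a single drug or a fixed anchor-drug dose together with five library-drug doses (not always all listed) in √10 steps, by pin tool, on the day after seeding. Nuclei were counted after 5 days, and relative viability is the treated-to-vehicle ratio of nuclei counts. Values are medians of duplicate plates.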
# NCI-H650 = system: NCI-H650
# Outline: as §1
# COR-L23 = system: COR-L23
# Outline: as §1
# NCI-H727 = system: NCI-H727
# Outline: as §1
# PC-14 = system: PC-14
# Outline: as §1
# NCI-H838 = system: NCI-H838
# Outline: as §1
# NCI-H1650 = system: NCI-H1650
# Outline: as §1
# LU99A = system: LU99A
# Outline: as §1
# H3255 = system: H3255
# Outline: as §1
# A-427 = system: A-427
# Outline: as §1
# NCI-H1793 = system: NCI-H1793
# Outline: as §1
# LCLC-103H = system: LCLC-103H
# Outline: as §1
# LK-2 = system: LK-2
# Outline: as §1
# NCI-H1944 = system: NCI-H1944
# Outline: as §1
# NCI-H460 = system: NCI-H460
# Outline: as §1
# LCLC-97TM1 = system: LCLC-97TM1
# Outline: as §1
# 201T = system: 201T
# Outline: as §1
# HCC-44 = system: HCC-44
# Outline: as §1
# NCI-H23 = system: NCI-H23
# Outline: as §1
# PC-3 [JPC-3] = system: PC-3 [JPC-3]
# Outline: as §1
# SW 900 = system: SW 900
# Outline: as §1
# SW 1573 = system: SW 1573
# Outline: as §1
structure (smiles),measurement,setting,value
NC(=O)Nc1cc(-c2cccc(F)c2)sc1C(=O)N[C@H]1CCCNC1 [AZD7762] + O=C(CCCCCCC(=O)Nc1ccccc1)NO [Vorinostat] (partner 1 µM),relative viability,NCI-H2347; first compound 0.01 µM,0.554
same,relative viability,NCI-H2347; first compound 0.03162 µM,0.711
same,relative viability,NCI-H2347; first compound 0.1 µM,0.557
same,relative viability,NCI-H2347; first compound 0.3162 µM,0.637
same,relative viability,NCI-H2347; first compound 1 µM,0.547
same,relative viability,NCI-H650; first compound 0.01 µM,0.435
same,relative viability,NCI-H650; first compound 0.03162 µM,0.404
same,relative viability,NCI-H650; first compound 0.1 µM,0.411
same,relative viability,NCI-H650; first compound 0.3162 µM,0.399
same,relative viability,NCI-H650; first compound 1 µM,0.334
same,relative viability,COR-L23; first compound 0.01 µM,0.562
same,relative viability,COR-L23; first compound 0.03162 µM,0.423
same,relative viability,COR-L23; first compound 0.1 µM,0.246
same,relative viability,COR-L23; first compound 0.3162 µM,0.129
same,relative viability,COR-L23; first compound 1 µM,0.0864
same,relative viability,NCI-H727; first compound 0.01 µM,1.18
same,relative viability,NCI-H727; first compound 0.03162 µM,1.26
same,relative viability,NCI-H727; first compound 0.1 µM,1.2
same,relative viability,NCI-H727; first compound 0.3162 µM,1.24
same,relative viability,NCI-H727; first compound 1 µM,0.868
same,relative viability,PC-14; first compound 0.01 µM,0.761
same,relative viability,PC-14; first compound 0.03162 µM,0.591
same,relative viability,PC-14; first compound 0.1 µM,0.57
same,relative viability,PC-14; first compound 0.3162 µM,0.292
same,relative viability,PC-14; first compound 1 µM,0.0419
same,relative viability,NCI-H838; first compound 0.01 µM,0.731
same,relative viability,NCI-H838; first compound 0.03162 µM,0.726
same,relative viability,NCI-H838; first compound 0.1 µM,0.76
same,relative viability,NCI-H838; first compound 0.3162 µM,0.745
same,relative viability,NCI-H838; first compound 1 µM,0.272
same,relative viability,NCI-H1650; first compound 0.01 µM,0.622
same,relative viability,NCI-H1650; first compound 0.03162 µM,0.719
same,relative viability,NCI-H1650; first compound 0.1 µM,0.651
same,relative viability,NCI-H1650; first compound 0.3162 µM,0.392
same,relative viability,NCI-H1650; first compound 1 µM,0.157
same,relative viability,LU99A; first compound 0.01 µM,0.469
same,relative viability,LU99A; first compound 0.03162 µM,0.536
same,relative viability,LU99A; first compound 0.1 µM,0.561
same,relative viability,LU99A; first compound 0.3162 µM,0.345
same,relative viability,LU99A; first compound 1 µM,0.171
same,relative viability,H3255; first compound 0.01 µM,0.944
same,relative viability,H3255; first compound 0.03162 µM,0.831
same,relative viability,H3255; first compound 0.1 µM,0.809
same,relative viability,H3255; first compound 0.3162 µM,0.722
same,relative viability,H3255; first compound 1 µM,0.684
same,relative viability,A-427; first compound 0.01 µM,0.875
same,relative viability,A-427; first compound 0.03162 µM,0.874
same,relative viability,A-427; first compound 0.1 µM,0.857
same,relative viability,A-427; first compound 0.3162 µM,0.728
same,relative viability,A-427; first compound 1 µM,0.41
same,relative viability,NCI-H1793; first compound 0.01 µM,0.692
same,relative viability,NCI-H1793; first compound 0.03162 µM,0.878
same,relative viability,NCI-H1793; first compound 0.1 µM,0.981
same,relative viability,NCI-H1793; first compound 0.3162 µM,0.953
same,relative viability,NCI-H1793; first compound 1 µM,0.284
same,relative viability,LCLC-103H; first compound 0.01 µM,0.857
same,relative viability,LCLC-103H; first compound 0.03162 µM,0.776
same,relative viability,LCLC-103H; first compound 0.1 µM,0.842
same,relative viability,LCLC-103H; first compound 0.3162 µM,0.591
same,relative viability,LCLC-103H; first compound 1 µM,0.69
same,relative viability,LK-2; first compound 0.01 µM,0.307
same,relative viability,LK-2; first compound 0.03162 µM,0.316
same,relative viability,LK-2; first compound 0.1 µM,0.272
same,relative viability,LK-2; first compound 0.3162 µM,0.468
same,relative viability,LK-2; first compound 1 µM,0.283
same,relative viability,NCI-H1944; first compound 0.01 µM,0.544
same,relative viability,NCI-H1944; first compound 0.03162 µM,0.654
same,relative viability,NCI-H1944; first compound 0.1 µM,0.611
same,relative viability,NCI-H1944; first compound 0.3162 µM,0.568
same,relative viability,NCI-H1944; first compound 1 µM,0.295
same,relative viability,NCI-H460; first compound 0.01 µM,0.885
same,relative viability,NCI-H460; first compound 0.03162 µM,0.63
same,relative viability,NCI-H460; first compound 0.1 µM,0.684
same,relative viability,NCI-H460; first compound 0.3162 µM,0.216
same,relative viability,NCI-H460; first compound 1 µM,0.0532
same,relative viability,LCLC-97TM1; first compound 0.01 µM,0.799
same,relative viability,LCLC-97TM1; first compound 0.03162 µM,0.725
same,relative viability,LCLC-97TM1; first compound 0.1 µM,0.648
same,relative viability,LCLC-97TM1; first compound 0.3162 µM,0.636
same,relative viability,LCLC-97TM1; first compound 1 µM,0.356
same,relative viability,201T; first compound 0.01 µM,0.996
same,relative viability,201T; first compound 0.03162 µM,1.03
same,relative viability,201T; first compound 0.1 µM,1.03
same,relative viability,201T; first compound 0.3162 µM,1.08
same,relative viability,201T; first compound 1 µM,1.01
same,relative viability,HCC-44; first compound 0.01 µM,1.08
same,relative viability,HCC-44; first compound 0.03162 µM,1.11
same,relative viability,HCC-44; first compound 0.1 µM,1.1
same,relative viability,HCC-44; first compound 0.3162 µM,1.1
same,relative viability,HCC-44; first compound 1 µM,1.02
same,relative viability,NCI-H23; first compound 0.01 µM,0.634
same,relative viability,NCI-H23; first compound 0.03162 µM,0.503
same,relative viability,NCI-H23; first compound 0.1 µM,0.582
same,relative viability,NCI-H23; first compound 0.3162 µM,0.248
same,relative viability,NCI-H23; first compound 1 µM,0.149
same,relative viability,PC-3 [JPC-3]; first compound 0.01 µM,0.644
same,relative viability,PC-3 [JPC-3]; first compound 0.03162 µM,0.888
same,relative viability,PC-3 [JPC-3]; first compound 0.1 µM,0.759
same,relative viability,PC-3 [JPC-3]; first compound 0.3162 µM,0.607
same,relative viability,PC-3 [JPC-3]; first compound 1 µM,0.501
same,relative viability,SW 900; first compound 0.01 µM,0.643
same,relative viability,SW 900; first compound 0.03162 µM,0.445
same,relative viability,SW 900; first compound 0.1 µM,0.545
same,relative viability,SW 900; first compound 0.3162 µM,0.262
same,relative viability,SW 900; first compound 1 µM,0.275
same,relative viability,SW 1573; first compound 0.01 µM,1.16
same,relative viability,SW 1573; first compound 0.03162 µM,0.994
same,relative viability,SW 1573; first compound 0.1 µM,0.821
same,relative viability,SW 1573; first compound 0.3162 µM,0.648
same,relative viability,SW 1573; first compound 1 µM,0.102
